Activity calls are given as the source filed them. For most assays here, no stated cut-off is given here; in the data, actives have a measured Kd and inactives only a lower limit.

Experiment [1] deals with Tyrosine-protein kinase ABL2 (Homo sapiens, UniProt P42684).
Experiment [2] addresses Activin receptor type-2B (Homo sapiens, UniProt Q13705).
Experiment [3] has as its target T1, Ephrin type-B receptor 6 (Homo sapiens, UniProt O15197).
T1 sequence (O15197 whole entry): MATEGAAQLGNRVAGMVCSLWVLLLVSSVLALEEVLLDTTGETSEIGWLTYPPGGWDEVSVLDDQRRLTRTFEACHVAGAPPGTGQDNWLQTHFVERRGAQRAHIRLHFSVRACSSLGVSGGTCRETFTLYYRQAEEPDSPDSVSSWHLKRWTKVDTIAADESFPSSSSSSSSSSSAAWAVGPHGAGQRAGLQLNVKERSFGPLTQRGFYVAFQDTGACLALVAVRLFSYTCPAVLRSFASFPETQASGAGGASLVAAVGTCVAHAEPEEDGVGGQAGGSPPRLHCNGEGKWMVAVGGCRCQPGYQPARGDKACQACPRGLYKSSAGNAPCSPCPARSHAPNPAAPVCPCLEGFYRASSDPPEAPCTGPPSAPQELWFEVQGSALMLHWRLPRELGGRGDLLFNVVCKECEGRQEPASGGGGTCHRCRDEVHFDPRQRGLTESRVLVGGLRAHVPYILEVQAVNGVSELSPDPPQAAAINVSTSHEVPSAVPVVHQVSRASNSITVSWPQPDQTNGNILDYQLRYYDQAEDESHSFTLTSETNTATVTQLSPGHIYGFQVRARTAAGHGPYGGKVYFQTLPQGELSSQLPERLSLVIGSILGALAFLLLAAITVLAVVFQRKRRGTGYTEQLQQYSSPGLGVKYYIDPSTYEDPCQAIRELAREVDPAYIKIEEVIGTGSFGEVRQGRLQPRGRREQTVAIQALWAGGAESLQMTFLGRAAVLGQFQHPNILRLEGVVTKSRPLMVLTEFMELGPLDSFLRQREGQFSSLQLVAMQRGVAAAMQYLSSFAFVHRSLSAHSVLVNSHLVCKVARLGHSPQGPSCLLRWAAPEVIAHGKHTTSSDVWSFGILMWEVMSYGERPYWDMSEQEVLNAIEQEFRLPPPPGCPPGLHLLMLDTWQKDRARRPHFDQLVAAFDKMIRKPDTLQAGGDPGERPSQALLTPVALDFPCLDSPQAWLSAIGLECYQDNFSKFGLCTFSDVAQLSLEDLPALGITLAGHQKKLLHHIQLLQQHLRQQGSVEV

Experiment [4] concerns the target T2, Phenylalanine--tRNA ligase beta subunit (Homo sapiens, UniProt Q9NSD9).
T2 sequence (Q9NSD9 whole entry): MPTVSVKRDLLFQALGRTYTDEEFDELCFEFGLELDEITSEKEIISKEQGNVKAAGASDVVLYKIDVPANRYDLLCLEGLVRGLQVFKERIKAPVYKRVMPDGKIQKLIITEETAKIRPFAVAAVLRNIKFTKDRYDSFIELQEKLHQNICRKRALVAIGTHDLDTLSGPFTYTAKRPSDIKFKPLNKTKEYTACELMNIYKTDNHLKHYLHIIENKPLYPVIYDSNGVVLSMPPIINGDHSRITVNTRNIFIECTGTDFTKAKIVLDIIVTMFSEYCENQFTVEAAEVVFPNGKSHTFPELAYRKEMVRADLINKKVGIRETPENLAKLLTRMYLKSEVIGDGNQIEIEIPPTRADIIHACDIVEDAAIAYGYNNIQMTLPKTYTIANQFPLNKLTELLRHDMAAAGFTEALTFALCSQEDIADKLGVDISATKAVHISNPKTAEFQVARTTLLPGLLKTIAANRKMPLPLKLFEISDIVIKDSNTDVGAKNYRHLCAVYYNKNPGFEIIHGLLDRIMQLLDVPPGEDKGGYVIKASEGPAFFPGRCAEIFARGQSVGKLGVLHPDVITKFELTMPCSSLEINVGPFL

The target in experiment [5] is GTP-binding nuclear protein Ran (Homo sapiens, UniProt P62826).
In experiment [6] the target is Ribosomal protein S6 kinase alpha-6 (Homo sapiens, UniProt Q9UK32).
Sequence of Ribosomal protein S6 kinase alpha-6 (Q9UK32 whole entry): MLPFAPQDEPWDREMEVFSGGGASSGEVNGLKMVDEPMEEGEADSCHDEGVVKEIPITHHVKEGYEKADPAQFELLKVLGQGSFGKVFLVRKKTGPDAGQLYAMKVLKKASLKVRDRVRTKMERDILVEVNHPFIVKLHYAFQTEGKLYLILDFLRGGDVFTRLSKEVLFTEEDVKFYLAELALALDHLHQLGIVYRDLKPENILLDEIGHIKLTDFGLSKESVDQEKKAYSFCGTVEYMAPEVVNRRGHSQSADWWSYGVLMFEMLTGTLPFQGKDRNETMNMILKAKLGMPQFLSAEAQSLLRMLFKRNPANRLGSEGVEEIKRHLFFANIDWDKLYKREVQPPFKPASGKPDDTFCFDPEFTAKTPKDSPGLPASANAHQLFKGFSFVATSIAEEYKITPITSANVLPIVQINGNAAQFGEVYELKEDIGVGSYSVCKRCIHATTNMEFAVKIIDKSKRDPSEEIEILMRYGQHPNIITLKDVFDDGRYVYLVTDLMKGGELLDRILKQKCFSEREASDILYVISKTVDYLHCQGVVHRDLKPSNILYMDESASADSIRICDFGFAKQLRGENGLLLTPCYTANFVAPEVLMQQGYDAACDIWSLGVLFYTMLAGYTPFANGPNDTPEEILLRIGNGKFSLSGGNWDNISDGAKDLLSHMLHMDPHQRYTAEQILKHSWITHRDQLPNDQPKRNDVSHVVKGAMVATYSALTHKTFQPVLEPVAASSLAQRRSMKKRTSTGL
Experiment [7] addresses T3, Tyrosine-protein kinase Tec (Homo sapiens, UniProt P42680).
T3 sequence (P42680 whole entry): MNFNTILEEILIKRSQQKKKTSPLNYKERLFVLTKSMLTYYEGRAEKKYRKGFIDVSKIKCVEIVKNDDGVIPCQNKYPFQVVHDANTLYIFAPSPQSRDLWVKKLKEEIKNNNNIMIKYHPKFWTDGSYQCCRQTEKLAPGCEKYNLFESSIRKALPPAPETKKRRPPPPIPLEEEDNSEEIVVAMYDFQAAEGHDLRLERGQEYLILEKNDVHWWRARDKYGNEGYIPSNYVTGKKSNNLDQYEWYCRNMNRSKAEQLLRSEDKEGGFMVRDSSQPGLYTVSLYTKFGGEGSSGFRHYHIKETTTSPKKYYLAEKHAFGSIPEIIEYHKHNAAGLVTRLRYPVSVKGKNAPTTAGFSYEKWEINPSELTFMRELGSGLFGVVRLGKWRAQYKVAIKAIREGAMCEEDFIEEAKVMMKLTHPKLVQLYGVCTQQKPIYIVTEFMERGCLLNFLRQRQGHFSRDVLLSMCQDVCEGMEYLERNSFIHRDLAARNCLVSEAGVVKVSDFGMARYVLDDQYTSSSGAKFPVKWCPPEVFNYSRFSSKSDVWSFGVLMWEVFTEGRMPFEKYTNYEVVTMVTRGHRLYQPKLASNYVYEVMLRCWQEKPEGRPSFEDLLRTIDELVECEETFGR

Experiment [8] deals with T4, Uncharacterized protein FLJ45252 (Homo sapiens, UniProt Q6ZSR9).
T4 sequence (Q6ZSR9 whole entry): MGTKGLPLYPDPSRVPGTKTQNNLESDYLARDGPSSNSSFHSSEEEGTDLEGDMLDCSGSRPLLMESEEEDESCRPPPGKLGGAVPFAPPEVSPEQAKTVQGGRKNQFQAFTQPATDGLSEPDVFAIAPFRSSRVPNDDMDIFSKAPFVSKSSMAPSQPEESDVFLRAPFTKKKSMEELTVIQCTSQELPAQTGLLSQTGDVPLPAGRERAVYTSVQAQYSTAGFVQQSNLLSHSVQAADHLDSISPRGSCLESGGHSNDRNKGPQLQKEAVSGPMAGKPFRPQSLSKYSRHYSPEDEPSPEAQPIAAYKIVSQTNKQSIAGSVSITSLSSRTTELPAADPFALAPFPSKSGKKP
Particulars: read-out: Kd apparent; k-562, colo 205, sk-n-be(2) and mv-4-11.

Sequence of Activin receptor type-2B (Q13705 whole entry): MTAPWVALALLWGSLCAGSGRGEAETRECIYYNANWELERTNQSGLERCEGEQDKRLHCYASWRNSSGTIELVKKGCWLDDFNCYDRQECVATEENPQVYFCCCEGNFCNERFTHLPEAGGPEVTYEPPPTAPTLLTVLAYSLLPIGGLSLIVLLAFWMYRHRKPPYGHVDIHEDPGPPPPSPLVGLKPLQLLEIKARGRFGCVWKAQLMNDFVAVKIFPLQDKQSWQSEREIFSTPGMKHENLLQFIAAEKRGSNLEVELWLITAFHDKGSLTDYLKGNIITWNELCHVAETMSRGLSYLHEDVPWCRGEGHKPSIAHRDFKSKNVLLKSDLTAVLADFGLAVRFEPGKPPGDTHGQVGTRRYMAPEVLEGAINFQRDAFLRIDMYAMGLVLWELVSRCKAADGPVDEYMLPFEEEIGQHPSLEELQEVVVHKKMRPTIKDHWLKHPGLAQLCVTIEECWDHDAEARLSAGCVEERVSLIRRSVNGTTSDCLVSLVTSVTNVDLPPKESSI
Sequence of Tyrosine-protein kinase ABL2 (P42684 whole entry): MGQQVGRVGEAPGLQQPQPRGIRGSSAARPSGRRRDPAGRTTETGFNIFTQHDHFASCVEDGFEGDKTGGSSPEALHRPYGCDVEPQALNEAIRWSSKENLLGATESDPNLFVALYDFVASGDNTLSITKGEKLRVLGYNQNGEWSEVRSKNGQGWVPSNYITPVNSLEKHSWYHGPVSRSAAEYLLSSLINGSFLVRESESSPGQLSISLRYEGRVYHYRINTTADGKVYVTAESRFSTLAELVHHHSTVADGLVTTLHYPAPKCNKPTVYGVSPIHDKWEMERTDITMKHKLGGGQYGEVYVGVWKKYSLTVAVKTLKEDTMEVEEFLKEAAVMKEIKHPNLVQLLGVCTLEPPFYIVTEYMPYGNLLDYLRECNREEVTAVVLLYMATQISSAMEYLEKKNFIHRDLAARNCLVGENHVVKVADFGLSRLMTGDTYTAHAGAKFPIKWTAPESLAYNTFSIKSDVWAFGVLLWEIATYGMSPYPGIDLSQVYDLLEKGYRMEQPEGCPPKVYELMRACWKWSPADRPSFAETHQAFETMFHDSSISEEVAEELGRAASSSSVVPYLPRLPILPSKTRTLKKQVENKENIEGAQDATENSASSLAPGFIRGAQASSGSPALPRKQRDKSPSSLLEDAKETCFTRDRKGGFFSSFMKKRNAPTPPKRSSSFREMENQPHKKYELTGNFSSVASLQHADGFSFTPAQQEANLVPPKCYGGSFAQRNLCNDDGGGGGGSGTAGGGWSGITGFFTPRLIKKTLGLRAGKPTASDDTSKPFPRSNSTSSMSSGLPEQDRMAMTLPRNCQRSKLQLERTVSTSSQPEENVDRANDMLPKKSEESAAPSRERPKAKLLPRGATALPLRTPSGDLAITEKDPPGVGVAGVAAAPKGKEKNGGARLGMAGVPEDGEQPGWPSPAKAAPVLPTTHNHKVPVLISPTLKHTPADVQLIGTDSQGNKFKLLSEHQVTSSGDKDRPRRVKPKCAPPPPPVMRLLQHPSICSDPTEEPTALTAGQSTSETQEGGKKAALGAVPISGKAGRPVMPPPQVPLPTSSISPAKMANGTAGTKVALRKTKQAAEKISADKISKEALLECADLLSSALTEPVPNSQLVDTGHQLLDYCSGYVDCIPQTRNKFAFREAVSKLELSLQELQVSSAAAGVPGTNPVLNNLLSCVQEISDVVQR

For `C[C@@H]1COC(Nc2ccc3ncnc(Nc4ccc(OCc5nccs5)c(Cl)c4)c3c2)=N1` [VARLITINIB], the Kd in experiment [1], in experiment [2], in experiment [3], in experiment [4], in experiment [5] and in experiment [6] was > 30 µM (inactive) in each case. Further, the Kd in experiment [7] and in experiment [8] was > 30 µM (inactive) each time.

As to `C=CCN(/C=C1/C(=O)O[C@H](COC)[C@@]2(C)C1=C(O)C(=O)C1=C2[C@H](OC(C)=O)C[C@]2(C)C(=O)CC[C@@H]12)CC=C` [SONOLISIB], the Kd in experiment [1], in experiment [2], in experiment [3], in experiment [4], in experiment [5] and in experiment [6] was > 30 µM (inactive) in each case. For the same compound, the Kd in experiment [7] and in experiment [8] was > 30 µM (inactive) in each case.

As for `CCN(CCCOc1ccc2c(Nc3cc(CC(=O)Nc4cccc(F)c4)n[nH]3)ncnc2c1)CCOP(=O)(O)O` [BARASERTIB], the Kd in experiment [1], in experiment [2], in experiment [3], in experiment [4], in experiment [5] and in experiment [6] was > 30 µM (inactive) throughout. For the same compound, the Kd in experiment [7] and in experiment [8] was > 30 µM (inactive) each time.

As to `COCCN1CCN(Cc2ccc(-c3n[nH]c4c3C(=O)c3c(NC(=O)NN5CCOCC5)cccc3-4)cc2)CC1` [RGB-286638], the Kd in experiment [1], in experiment [2], in experiment [3], in experiment [4], in experiment [5] and in experiment [6] was > 30 µM (inactive) each time. In addition, the figures for the Kd in experiment [7] and in experiment [8] were > 30 µM (inactive) and 0.022 µM (active), respectively.

Regarding `COc1cc(Nc2ncc(F)c(Nc3ccc4c(n3)N(COP(=O)(O)O)C(=O)C(C)(C)O4)n2)cc(OC)c1OC` [FOSTAMATINIB], the Kd in experiment [1], in experiment [2], in experiment [3], in experiment [4], in experiment [5] and in experiment [6] was > 30 µM (inactive) in each case. The Kd in experiment [7] and in experiment [8] was > 30 µM (inactive) each time.

For the compound `C#Cc1cccc(Nc2ncnc3cc4c(cc23)OCCOCCOCCO4)c1` [ICOTINIB], the Kd in experiment [1], in experiment [2], in experiment [3], in experiment [4], in experiment [5] and in experiment [6] was > 30 µM (inactive) in each case. Further, the Kd in experiment [7] and in experiment [8] was > 30 µM (inactive) in each case.

In the case of `Cn1cc(-c2[nH]c3cc(NC(=O)[C@H](N)C4CCCCC4)cc4c3c2C=NNC4=O)cn1`, the Kd in experiment [1] was 1.37 µM (active); in experiment [2], > 30 µM (inactive); in experiment [3], 1.53 µM; in experiment [4], > 30 µM (inactive); in experiment [5] it was > 30 µM (inactive); in experiment [6] it was 2.38 µM (active). Also, the Kd was > 30 µM (inactive) in experiment [7] and 0.002 µM (active) in experiment [8].

For the compound `CC(C)(O)CC(=O)NCCn1ccc2ncnc(Nc3ccc(Oc4cccc(C(F)(F)F)c4)c(Cl)c3)c21` [TAK-285], the Kd in experiment [1] is > 30 µM (inactive); in experiment [2], > 30 µM (inactive); in experiment [3], 1.85 µM; in experiment [4], > 30 µM (inactive); in experiment [5], > 30 µM (inactive); in experiment [6], > 30 µM (inactive). The Kd in experiment [7] and in experiment [8] was > 30 µM (inactive) in each case.
